These results are taken from BindingDB's records for doi:10.1016/s0014-2999(02)02124-6 (Schering-Plough Research Institute, 2002).

A value given as a limit tells only on which side of the number the result lay.

One test deals with Substance-P receptor (Homo sapiens, UniProt P25103).
A further test addresses T1, Neuromedin-K receptor (Homo sapiens, UniProt P29371).
T1 sequence (P29371 whole entry): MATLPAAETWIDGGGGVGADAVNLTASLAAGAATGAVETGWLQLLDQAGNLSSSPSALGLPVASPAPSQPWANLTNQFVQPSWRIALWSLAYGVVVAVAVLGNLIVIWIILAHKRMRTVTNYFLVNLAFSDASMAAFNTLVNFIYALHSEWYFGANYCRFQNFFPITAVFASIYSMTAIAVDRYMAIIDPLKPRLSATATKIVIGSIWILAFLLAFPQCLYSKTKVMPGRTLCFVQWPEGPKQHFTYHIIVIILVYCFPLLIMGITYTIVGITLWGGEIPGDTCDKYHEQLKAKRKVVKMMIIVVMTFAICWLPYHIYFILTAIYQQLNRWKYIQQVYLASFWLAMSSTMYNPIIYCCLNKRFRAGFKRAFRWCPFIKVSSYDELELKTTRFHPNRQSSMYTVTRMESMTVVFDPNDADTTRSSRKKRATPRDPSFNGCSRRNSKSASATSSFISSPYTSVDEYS

For another test, the target named is T2, Substance-K receptor (Homo sapiens, UniProt P21452).
T2 sequence (P21452 whole entry): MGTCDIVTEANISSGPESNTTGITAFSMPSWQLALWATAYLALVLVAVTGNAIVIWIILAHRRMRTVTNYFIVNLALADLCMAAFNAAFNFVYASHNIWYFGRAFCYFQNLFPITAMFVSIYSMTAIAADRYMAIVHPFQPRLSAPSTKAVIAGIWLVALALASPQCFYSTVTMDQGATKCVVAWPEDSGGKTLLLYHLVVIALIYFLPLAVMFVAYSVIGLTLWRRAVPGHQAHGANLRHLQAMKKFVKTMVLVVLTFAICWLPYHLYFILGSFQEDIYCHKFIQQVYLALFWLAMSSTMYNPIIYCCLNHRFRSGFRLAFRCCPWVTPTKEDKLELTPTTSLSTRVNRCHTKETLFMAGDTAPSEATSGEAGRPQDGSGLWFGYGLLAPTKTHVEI

Substance-P receptor, sequence (P25103 whole entry): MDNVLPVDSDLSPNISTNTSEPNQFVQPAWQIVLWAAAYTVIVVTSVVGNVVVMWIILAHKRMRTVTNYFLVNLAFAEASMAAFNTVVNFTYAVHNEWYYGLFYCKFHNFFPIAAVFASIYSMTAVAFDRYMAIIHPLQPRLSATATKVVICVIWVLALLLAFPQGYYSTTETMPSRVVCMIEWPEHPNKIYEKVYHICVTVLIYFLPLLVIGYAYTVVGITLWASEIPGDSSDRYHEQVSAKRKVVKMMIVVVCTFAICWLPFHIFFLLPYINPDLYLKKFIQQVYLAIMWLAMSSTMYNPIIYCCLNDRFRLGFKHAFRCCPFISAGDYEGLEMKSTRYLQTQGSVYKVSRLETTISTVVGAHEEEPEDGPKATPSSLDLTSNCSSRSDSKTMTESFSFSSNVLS

Regarding `CNC(=O)CC1CCCN(C2CCN(CC[C@@H](/C(CN(C)C(=O)c3cc(Cl)cc(Cl)c3)=N/OC)c3ccc(Cl)c(Cl)c3)CC2)C1=O` (stereo partly drawn), the figures for the Ki on Substance-P receptor, at Neuromedin-K receptor and at Substance-K receptor were 1.3 nM, 0.3 nM and 0.4 nM, respectively.

For the compound `COc1ccccc1CN[C@H]1CCCN[C@H]1c1ccccc1` [(+/-)(2-Methoxy-benzyl)-(2-phenyl-piperidin-3-yl)-amine], the Ki at Neuromedin-K receptor and on Substance-K receptor was more than 10000 nM throughout.

As to `CC(=O)NC1(c2ccccc2)CCN(CCC(CN(C)C(=O)c2ccccc2)c2ccc(Cl)c(Cl)c2)CC1` (stereo not drawn) [SR 48968], the Ki came out at 273 nM at Substance-P receptor, 1280 nM at Neuromedin-K receptor and 0.4 nM at Substance-K receptor.
